From patent US20110226998A1, “ELECTROWETTING ELEMENTS” (LIQUAVISTA B.V., priority 2008, published 2011)

assay: Photo-bleaching test according to standard IEC 60068-2-9, Atlas Suntest CPS/XLS+ instrument, reflectance measurement; format: physicochemical; conditions: sample thickness 4 micrometres, 1 centimetre diameter, 0.1M in decane; exposure 0, 4, 24, 48, 120 and 240 hours
Text: Exemplary dye compounds will now be described below, including a schematic illustration of each dye. Whilst exemplary anthraquinone dyes are given below, it is to be appreciated that corresponding napthoquinone dyes are envisaged also within the scope of the present invention, namely including napthoquinones having the same molecular structure of the right hand (as illustrated herein) benzene ring as the molecular structure of the right hand (as illustrated herein) benzene ring of the anthrquinone examples described below. The stereochemistry of each dye is not limited to that shown; it is to be appreciated that molecular structures of the dyes having different stereochemistry are within the scope of the dyes of the invention. […] For each of the exemplary dyes, data is given as evidence of their reduced photo-bleaching properties. […] The periods of time given for testing are scalable to equate to a number of weeks of exposing the tested dyes to solar radiation. For example, the period of exposure of 240 hours given below approximately equates to continuously exposing the dyes to solar radiation in London, UK, for 14 weeks, taking an average yearly solar radiation quantity as 1,000 kWh/m^2/year. In reality, taking into account that a display application is not used or is used inside for a major part of the time, this equates to a few years of practical lifetime.
(§1) This dye is cyan in colour. Upon testing, a sample of the dye with a thickness of 4 micrometres, a circular area of 1 centimetre diameter and a concentration of 0.1M in decane, was measured for reflectance of radiation with wavelengths from 380 to 750 nano-metres, at 5 nano-metre increments. This test was run separately for different time periods, namely for 0, 4, 24, 48, 120 and 240 hours. The reflectance of the dye for the range of wavelengths tested was approximately the same for each different testing time period.
as §1, with “purple” for “cyan”, “48, and” for “48,”, “120” for “120 and 240”
as §1, with “magenta” for “cyan”
as §1, with “blue” for “cyan”, “48, and” for “48,”, “120” for “120 and 240”
as §1, with “blue/cyan” for “cyan”, “48, and” for “48,”, “120” for “120 and 240”

photo-bleaching (reflectance of radiation, 380 to 750 nano-metres, compared over testing time periods)	Compound
does not exhibit photo-bleaching	CCCCCCCc1cc(NC2CCCCC2)c2c(c1NC1CCCCC1)C(=O)c1ccccc1C2=O [Example 4]
does not exhibit photo-bleaching	CCCCC(CC)Cc1cc(NC2CCCCC2)c2c(c1NC1CCCCC1)C(=O)c1ccccc1C2=O (stereo not drawn) [Example 3]
does not exhibit photo-bleaching	CCCCC(CC)CNc1ccc(NCC(CC)CCCC)c2c1C(=O)c1ccccc1C2=O (stereo not drawn) [Example 1]

same assay, conditions: sample thickness 4 micrometres, 1 centimetre diameter, 0.1M in decane; exposure 0, 4, 24, 48, and 120 hours

photo-bleaching (reflectance of radiation, 380 to 750 nano-metres, compared over testing time periods)	Compound
does not exhibit photo-bleaching	CCCCC(CC)CNc1cc2c(c3c1C(=O)c1ccccc1C3=O)NC1CC(C)CCC1C2(C)C (stereo not drawn) [Example 6]
does not exhibit photo-bleaching	CCCCC(CC)CNc1cc(CC(CC)CCCC)c(O)c2c1C(=O)c1ccccc1C2=O (stereo not drawn) [Example 2]
does not exhibit photo-bleaching	CCCCC(CC)CNc1cc(CC(CC)CCCC)c(N)c2c1C(=O)c1ccccc1C2=O (stereo not drawn) [Example 5]
